Laboratory results published in patent US10612071B2, “Method of measuring the deleterious effects of non-caloric artificial sweeteners on enzymatic hydrolysis of sucrose measured in real time” (California State University, Fresno, priority 2016, dated 2020).
Entries after “also recorded” stand apart in the source; their conditions may differ.

Legend:
Assay type in all cases: biochemical, S. cerevisiae
[1] = target: T1, Invertase (EC 3.2.1.26, β-fructofuranosidase) (Saccharomyces cerevisiae, UniProt P00724); experiment: Real-time 1H-NMR (qNMR) progress curve analysis of invertase-catalysed sucrose hydrolysis, Lambert-W fit; conditions: for β-anomer of glucose formed: in the presence of sucralose (FIG. 5); for α-anomer of glucose formed: in the presence of sucralose (FIG. 5, 50 mM each)
T1 construct: purchased Sigma-Aldrich
Excerpt: Equation [5], derived from Equation [2], relates the substrate concentration at any time ([S]) to its initial concentration ([S]0), the Michaelis-Menten kinetic parameters Vmax and KM. Equation [5] is used to fit the real time experimental data obtained for enzyme kinetics using the analysis code written using R-Statistical environment (R Core Team 2014).
(§1) Invertase (EC 3.2.1.26, β-fructofuranosidase, S. cerevisiae) was purchased from Sigma-Aldrich with a specific activity of >300 u/mg of solid (pH 4.6, 303 K).
Two standard samples were made in standard 5 mm NMR tubes to set up the NMR parameter.
All NMR kinetics solutions were made in an Eppendorf tube with a volume of 550 μL prior to adding 100 μL of invertase into the Eppendorf tube then transferring 600 μL of the solution into a NMR tube. The 100 μL invertase solution was added into the Eppendorf tube when the NMR kinetics experiment was ready to start. A timer was set at the beginning of the addition of the invertase solution in order to account for the delay time (the time before the collection of the NMR spectra) as this is a crucial part of the latter calculation.
^1H-NMR time-course data were collected in real time by qNMR (Vairan-Agilent, VNMRS system) and the kinetic data were subsequently processed using a non-linear least square fit procedure by using the Lambert-W function. This method was applied to determine the effect on the enzyme kinetics of hydrolysis, a fundamental step in converting the sucrose to glucose and fructose. Experimental results obtained using the direct real-time measurements were validated using a glucometer based approach.
The spectrometer software is used to find the integration under each peak of the sucrose (5.41 ppm) and TSP (0.0 ppm). The concentration of the sucrose peak is calculated with reference to the known concentration of TSP. If multiple experiments are performed, averages and standard deviations of the integrations of the trials at each temperature is calculated. A two-column excel or text (tab limited format) with X=Time and Y=[S] is produced as the input to the R-program. The written code utilizes the following external libraries: spatstat and gsl (to implement functions such as LambertW function), xtable (for table manipulations) and ggplot2 (to make plots (optional)). The R-code reads the input file and creates a data fit, statistics and plot with the experimental and fitted values. Typically the procedure works with a minimum of 15 time points sampled uniformly over the experimental time period chosen and it utilizes a non-linear least square fitting procedure. In addition to generating a plot (FIG. 10A), the code generates a file in picture format (.png) and a tab-limited text file that can be imported into other plotting routines. The statistical parameters of the fit (FIG. 10B) are also available in a tabular form for reporting purposes, which includes the fitted values (Coef.), standard error of the fit, t-statistics and p-value for each of the parameters. If the signal has not decayed to zero, an additional parameter (FIG. 10B) can be used as an offset.

[2] = target: T1, Invertase (EC 3.2.1.26, β-fructofuranosidase); experiment: Glucometer-based Michaelis-Menten kinetics of invertase-catalysed sucrose hydrolysis; conditions: for reaction velocity of the sucrose: sucralose 20 mM or lower (FIG. 11)
Excerpt: as §1

[3] = substrate: OC[C@H]1O[C@@](CO)(O[C@H]2O[C@H](CO)[C@@H](O)[C@H](O)[C@H]2O)[C@@H](O)[C@@H]1O; experiment: Real-time 1H-NMR (qNMR) progress curve analysis of invertase-catalysed sucrose hydrolysis, Lambert-W fit; conditions: 30.0 °C
[4] = other: Average of three trials, sucrose 42 mM, no sucralose
[5] = other: Trial 1, sucrose 42 mM, no sucralose
[6] = other: Trial 2, sucrose 42 mM, no sucralose
[7] = other: Trial 3, sucrose 42 mM, no sucralose
[8] = other: no sucralose (0 mM), sucrose 40 mM, sucrose:sucralose 1:0

## OC[C@H]1O[C@@](CO)(O[C@H]2O[C@H](CO)[C@@H](O)[C@H](O)[C@H]2O)[C@@H](O)[C@@H]1O [sucrose]
[1]; no sucralose (0 mM), sucrose 40 mM, sucrose:sucralose 1:0
  Vmax: 2.57 ± 0.03 µM/min

## OC[C@H]1O[C@H](O[C@]2(CCl)O[C@H](CCl)[C@@H](O)[C@@H]2O)[C@H](O)[C@@H](O)[C@H]1Cl [sucralose]
[1]; 1:2 ratio of sucrose:sucralose
  decrease of the maximal velocity (Vmax): ~33%
  enzyme catalytic activity inhibited: 50%
  increase of the KM value: ~50%
[1]; addition of sucralose (50 mM)
  decrease of the maximal velocity (Vmax): 37%
[1]; after 20 minutes
  β-anomer of glucose formed: about 7 mM
[1]; after 60 minutes of enzymatic conversion, in the presence of sucralose, starting sucrose 50 mM (FIG. 4)
  sucrose concentration remaining: about 15 mM
[1]; after 60 minutes
  β-anomer of glucose formed: about 10 mM
  α-anomer of glucose formed: about 22 mM
[1]; after 120 minutes
  β-anomer of glucose formed: about 17 mM
  α-anomer of glucose formed: about 22.5 mM
[1]; in the presence of sucralose, FIG. 4 (equimolar sucrose:sucralose, ~50 mM each)
  Vmax: 1.87 µM/min
[1]; regression line, FIG. 12B
  decrease of Vmax per unit increase of sucralose: 6.54 ± 0.03 µM/min
[1]; regression line, FIG. 12C
  decrease of catalytic efficiency of the enzyme per unit increase of sucralose (in mM): 152.1 mM^2/min
[1]; sucralose 1 mM, sucrose 40 mM (40:1)
  Vmax: 2.71 ± 0.04 µM/min
[1]; sucralose 5 mM, sucrose 40 mM (8:1)
  Vmax: 2.95 ± 0.04 µM/min
[1]; sucralose 10 mM, sucrose 40 mM (4:1)
  Vmax: 2.61 ± 0.03 µM/min
[1]; sucralose 20 mM, sucrose 40 mM (2:1)
  Vmax: 2.49 ± 0.02 µM/min
[1]; sucralose 40 mM, sucrose 40 mM (1:1)
  Vmax: 2.25 ± 0.02 µM/min
[1]; sucralose 50 mM
  increase of the KM value: more than 20%
  reduction of the enzymatic activity of the invertase: 20%
[1]; sucralose 60 mM, sucrose 40 mM (1:1.5)
  Vmax: 1.87 ± 0.02 µM/min
[1]; sucralose 80 mM, sucrose 40 mM (1:2)
  Vmax: 1.72 ± 0.02 µM/min
[1]; sucralose concentration during sucrose hydrolysis
  conversion of sucralose by enzymatic hydrolysis (invertase): not affected by enzymatic hydrolysis; also recorded: not converted
[2]; molar ratio of sucrose to sucralose 1:0.25 (FIG. 13)
  inhibition (substrate inhibition model curve): more than 50%
[2]; substrate concentration 0.1 M
  reaction velocity of the sucrose: over 0.4 M/min
[2]; substrate concentration about 0.27 M
  reaction velocity of the sucrose: over 0.4 M/min

B1: Invertase (EC 3.2.1.26, β-fructofuranosidase) (Saccharomyces cerevisiae S288C) (protein)
chain: SMTNETSDRPLVHFTPNKGWMNDPNGLWYDEKDAKWHLYFQYNPNDTVWGTPLFWGHATSDDLTNWEDQPIAIAPKRNDSGAFSGSMVVDYNNTSGFFNDTIDPRQRCVAIWTYNTPESEEQYISYSLDGGYTFTEYQKNPVLAANSTQFRDPKVFWYEPSQKWIMTAAKSQDYKIEIYSSDDLKSWKLESAFANEGFLGYQYECPGLIEVPTEQDPSKSYWVMFISINPGAPAGGSFNQYFVGSFNGTHFEAFDNQSRVVDFGKDYYALQTFFNTDPTYGSALGIAWASNWEYSAFVPTNPWRSSMSLVRKFSLNTEYQANPETELINLKAEPILNISNAGPWSRFATNTTLTKANSYNVDLSNSTGTLEFELVYAVNTTQTISKSVFADLSLWFKGLEDPEEYLRMGFEVSASSFFLDRGNSKVKFVKENPYFTNRMSVNNQPFKSENDLSYYKVYGLLDQNILELYFNDGDVVSTNTYFMTTGNALGSVNMTTGVDNLFYIDKFQVREVK
notes: purchased Sigma-Aldrich
[3]; [4]
  Km: 38.57 ± 3.72 mM
  Vmax: 2.54 ± 0.18 µM/min
[3]; [5]
  Km: 34.69 ± 3.96 mM
  Vmax: 2.34 ± 0.18 µM/min
[3]; [6]
  Km: 43.59 ± 11.90 mM
  Vmax: 2.77 ± 0.54 µM/min
[3]; [7]
  Km: 37.44 ± 7.79 mM
  Vmax: 2.51 ± 0.36 µM/min
[3]; [8]
  Km: 50.60 mM
  Vmax: 2.57 ± 0.03 µM/min
